Entries after “also recorded” stand apart in the source; their conditions may differ.
Tests used:
[1] = tested on: wt mice receiving normal diet; experiment: Fasting glucose in non-diabetic wild type mice on normal diet; format: in vivo, C57BI/6 mice; settings: non-diabetic wt mice on normal diet with CPX (FIG. 5B, FIG. 7A)
Source text: (§1) In Vivo Analysis of Anti-Diabetic Effect of CPX. Mice were randomly grouped. A group of C57BI/6 mice 4-5 weeks old, were fed with either a solution of 10% sucrose and a diet containing 40% kcal as a high-fat diet (HFD; Open Source Diets (New Brunswick, N.J., USA) D12451, 40% calories/fat with free access to (10%) sweetened water (sucrose) or a control chow diet containing 10% of kcal as fat (low-fat diet) and drinking water with no added sucrose (control). Mice with a glucose concentration exceeding 180 mg/dL were considered diabetic, after 2 consecutive glucose measurements. The blood glucose levels were measured using an Accu-Check blood glucose monitor (Roche, Indianapolis, Ind., USA) using blood sample collected from the tail vein. […] Glucose levels of mice were measured by an Accu-Chek Active meter (ROCHE) with blood sample obtained from the tail. […] For insulin resistance test, mice were injected intraperitoneally at a dose of 0.75 units/kg with human insulin (0.75 U/kg body weight; Sigma) at different time points as indicated, as for glucose tolerance after insulin injection and blood glucose was measured as described. In order to test if the antidiabetic activity of CPX was elicited only in diabetic mice or in non-diabetic mice as well, plasma glucose levels were assessed in wt mice that were receiving normal diet in combination with CPX.

ROS = experiment: Cellular ROS production in islets (DCFDA assay); format: cell-based, mice
Protocol: Measurement of Cellular ROS Production. Islets were incubated with KR buffer containing 0.01% (w/v) bovine serum albumin (BSA), 16 mM HEPES, and 2.8 mM glucose for 60 min at 37° C. ROS measurements were measured by using the DCFDA Cellular ROS Detection Assay Kit (Abcam/Mitosciences) in a 96-well dark microplate in accordance with the manufacturer's guidelines. Briefly, 30 islets were seeded into each well. On the day of the experiment, the islets were washed with 1×phosphate buffered saline and stained with 20 μM DCFH-DA in the dark for 30 min at 37° C. After incubation, DCFH-DA was removed, and the islets were washed with 1×buffer solution. Islets were seeded in a 96-well plate followed by high glucose alone or in combination with CPX glucose treatment and iron citrate alone or in combination with CPX treatment. Samples were analyzed using a Varioskan Flash micro-plate reader (Thermo-Scientific) with excitation wavelength at 485 nm and an emission wavelength at 535 nm. Tert-Butyl hydroperoxide (TBHP) was used as positive control.

C57BI/6 mice = experiment: Glucose tolerance test (i.p. 2 g glucose/kg); format: in vivo
Protocol: Glucose Level Determination and Intraperitoneal Insulin Tolerance Test. Mice were fasted for 6 h. Glucose levels of mice were measured by an Accu-Chek Active meter (ROCHE) with blood sample obtained from the tail. For glucose tolerance, mice were injected i.p. with 2 g glucose/kg blood glucose was checked at different time points as indicated (at either 0, 30, 60, 90, 120, 160, 220 min.). For insulin resistance test, mice were injected intraperitoneally at a dose of 0.75 units/kg with human insulin (0.75 U/kg body weight; Sigma) at different time points as indicated, as for glucose tolerance after insulin injection and blood glucose was measured as described.

diabetic wt mice = experiment: Fasting glucose in diet-induced diabetic wild type mice; format: in vivo, C57BI/6 mice; settings: wt mice diabetic by high fat diet and sweetened water; CPX 25 mg/kg daily (FIG. 5A)
Source text: as §1, with “vein. Diabetic mice were treated with either treated daily for 20 days by oral gavages with CPX (25 mg/kg) prepared in a solution (4% ethanol, 5.2% Tween 80, and 5.2% PEG 400) or vehicle control.” for “vein.”, “In order to test if the antidiabetic activity of CPX was elicited only in diabetic mice or in non-diabetic mice as well, plasma glucose levels were assessed in wt mice that were receiving normal diet in combination with CPX.” left out

With `Cc1cc(C2CCCCC2)n(O)c(=O)c1` [CPX, 6-cyclohexyl-1-hydroxy-4-methylpyridin-2(1H)-one] the “glucose levels (fasting)” value [1] was “no reduction of glucose levels was recorded; also recorded: not affected”, the ROS production (ROS; ROS triggered by high glucose (FIG. 12B)) was “potent inhibitor of ROS” and the ROS production (ROS; ROS triggered by iron citrate (FIG. 12B)) was “potent inhibitor of ROS”. The glucose tolerance (C57BI/6 mice; diabetic mice, CPX vs saline (FIG. 6A)) was “restored the response of diabetic mice to acute administration of glucose”, the glucose tolerance (C57BI/6 mice; non-diabetic wt mice on normal diet, CPX vs saline (FIG. 7B)) was “not affected” and the “blood glucose levels (fasting glucose)” value (diabetic wt mice) was “effectively improved glucose homeostasis causing reduction of blood glucose levels”.

From patent publication US10576151B2, “Ciclopirox for use in modulation of glucose homeostasis” (UNIVERSITY OF SOUTH CAROLINA, priority 2015, dated 2020)
